A value given as a limit tells only on which side of the number the result lay.

Eleven compounds from US20220340597A1, “HEXAHYDRO-1H-PYRAZINO[1,2-A]PYRAZINE COMPOUNDS FOR THE TREATMENT OF AUTOIMMUNE DISEASE” (Hoffmann-La Roche Inc., priority 2019, published 2022) can be followed below.

The target in one series is T1, hERG channel (Homo sapiens, UniProt Q12809).
T1 construct: expressed in transfected cells; host or cells: CHO (Chinese hamster ovary), CHOhERG
Put plainly: hERG channel inhibition assay (patch-clamp, CHOhERG cells). The series is classed as cell-based. To be noted: for IC50 / IC20: CHOhERG cells, whole-cell patch-clamp; for IC20: human, CHO cells stably expressing hERG (CHOhERG); for hERG IC20/TLR7 IC50 / hERG IC20/TLR8 IC50 / hERG IC20/TLR9 IC50: safety ratio. Here is the method:
hERG Channel Inhibition Assay:
The hERG K^+ channels were cloned in humans and stably expressed in a CHO (Chinese hamster ovary) cell line. CHOhERG cells were used for patch-clamp (voltage-clamp, whole-cell) experiments. Cells were stimulated by a voltage pattern to activate hERG channels and conduct IKhERG currents (rapid delayed outward rectifier potassium current of the hERG channel). After the cells were stabilized for a few minutes, the amplitude and kinetics of IKhERG were recorded at a stimulation frequency of 0.1 Hz (6 bpm). Thereafter, the test compound was added to the preparation at increasing concentrations. For each concentration, an attempt was made to reach a steady-state effect, usually, this was achieved within 3-10 min at which time the next highest concentration was applied. The amplitude and kinetics of IKhERG are recorded in each concentration of the drug which were compared to the control values (taken as 100%). (references: Redfern W S, Carlsson L, Davis A S, Lynch W G, MacKenzie I, Palethorpe S, Siegl P K, Strang I, Sullivan A T, Wallis R, Camm A J, Hammond T G. 2003; Relationships between preclinical cardiac electrophysiology, clinical QT interval prolongation and torsade de pointes for a broad range of drugs: evidence for a provisional safety margin in drug development. Cardiovasc. Res. 58:32-45, Sanguinetti M C, Tristani-Firouzi M. 2006; hERG potassium channels and cardiac arrhythmia. Nature 440:463-469, Webster R, Leishman D, Walker D. 2002; Towards a drug concentration effect relationship for QT prolongation and torsades de pointes. Curr. Opin. Drug Discov. Devel. 5:116-26).
The calculation of hERG IC20/TLR7/8/9 IC50 below serves as early selectivity index to assess hERG liability.
For orientation: Block of hERG is tested as a sign of cardiac risk.

A further series addresses T2, human TLR9 (Homo sapiens, UniProt Q9NR96).
T2 construct: host or cells: HEK293 (HEK-Blue hTLR9)
T2 sequence (Q9NR96 26-1032): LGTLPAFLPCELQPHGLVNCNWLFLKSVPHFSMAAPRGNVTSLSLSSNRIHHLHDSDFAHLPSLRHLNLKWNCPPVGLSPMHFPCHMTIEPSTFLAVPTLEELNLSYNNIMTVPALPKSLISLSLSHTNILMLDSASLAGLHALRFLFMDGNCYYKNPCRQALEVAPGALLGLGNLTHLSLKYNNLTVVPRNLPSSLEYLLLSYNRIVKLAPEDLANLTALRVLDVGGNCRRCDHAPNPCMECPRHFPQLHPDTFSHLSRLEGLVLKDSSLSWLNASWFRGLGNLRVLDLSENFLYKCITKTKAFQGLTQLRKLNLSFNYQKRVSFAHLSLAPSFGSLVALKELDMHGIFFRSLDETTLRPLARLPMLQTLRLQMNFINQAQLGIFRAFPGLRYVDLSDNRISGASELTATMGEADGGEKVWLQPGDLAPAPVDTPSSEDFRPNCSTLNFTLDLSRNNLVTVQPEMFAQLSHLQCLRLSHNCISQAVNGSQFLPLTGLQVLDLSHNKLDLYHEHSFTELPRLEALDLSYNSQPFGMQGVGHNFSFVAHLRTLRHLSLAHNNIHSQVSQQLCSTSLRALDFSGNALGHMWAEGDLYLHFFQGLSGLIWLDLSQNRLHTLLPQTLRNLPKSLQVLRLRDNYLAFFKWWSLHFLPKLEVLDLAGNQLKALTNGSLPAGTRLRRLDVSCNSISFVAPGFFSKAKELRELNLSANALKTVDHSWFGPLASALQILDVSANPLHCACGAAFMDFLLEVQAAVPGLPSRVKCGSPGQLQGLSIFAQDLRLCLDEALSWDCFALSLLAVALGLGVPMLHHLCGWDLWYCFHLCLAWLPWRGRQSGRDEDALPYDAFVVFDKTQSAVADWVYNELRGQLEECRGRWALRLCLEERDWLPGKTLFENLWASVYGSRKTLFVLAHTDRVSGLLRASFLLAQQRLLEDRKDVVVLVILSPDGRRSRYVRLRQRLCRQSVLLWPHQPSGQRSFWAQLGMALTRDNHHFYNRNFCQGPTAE
Kind of series: HEK293-Blue-hTLR-9 cells assay. Type of series: cell-based. To be noted: HEK293-Blue-hTLR9 cells, ODN2006 stimulation, 20 hrs, SEAP reporter; read-out: HEK/hTLR9 IC50.

T1 sequence (Q12809 whole entry): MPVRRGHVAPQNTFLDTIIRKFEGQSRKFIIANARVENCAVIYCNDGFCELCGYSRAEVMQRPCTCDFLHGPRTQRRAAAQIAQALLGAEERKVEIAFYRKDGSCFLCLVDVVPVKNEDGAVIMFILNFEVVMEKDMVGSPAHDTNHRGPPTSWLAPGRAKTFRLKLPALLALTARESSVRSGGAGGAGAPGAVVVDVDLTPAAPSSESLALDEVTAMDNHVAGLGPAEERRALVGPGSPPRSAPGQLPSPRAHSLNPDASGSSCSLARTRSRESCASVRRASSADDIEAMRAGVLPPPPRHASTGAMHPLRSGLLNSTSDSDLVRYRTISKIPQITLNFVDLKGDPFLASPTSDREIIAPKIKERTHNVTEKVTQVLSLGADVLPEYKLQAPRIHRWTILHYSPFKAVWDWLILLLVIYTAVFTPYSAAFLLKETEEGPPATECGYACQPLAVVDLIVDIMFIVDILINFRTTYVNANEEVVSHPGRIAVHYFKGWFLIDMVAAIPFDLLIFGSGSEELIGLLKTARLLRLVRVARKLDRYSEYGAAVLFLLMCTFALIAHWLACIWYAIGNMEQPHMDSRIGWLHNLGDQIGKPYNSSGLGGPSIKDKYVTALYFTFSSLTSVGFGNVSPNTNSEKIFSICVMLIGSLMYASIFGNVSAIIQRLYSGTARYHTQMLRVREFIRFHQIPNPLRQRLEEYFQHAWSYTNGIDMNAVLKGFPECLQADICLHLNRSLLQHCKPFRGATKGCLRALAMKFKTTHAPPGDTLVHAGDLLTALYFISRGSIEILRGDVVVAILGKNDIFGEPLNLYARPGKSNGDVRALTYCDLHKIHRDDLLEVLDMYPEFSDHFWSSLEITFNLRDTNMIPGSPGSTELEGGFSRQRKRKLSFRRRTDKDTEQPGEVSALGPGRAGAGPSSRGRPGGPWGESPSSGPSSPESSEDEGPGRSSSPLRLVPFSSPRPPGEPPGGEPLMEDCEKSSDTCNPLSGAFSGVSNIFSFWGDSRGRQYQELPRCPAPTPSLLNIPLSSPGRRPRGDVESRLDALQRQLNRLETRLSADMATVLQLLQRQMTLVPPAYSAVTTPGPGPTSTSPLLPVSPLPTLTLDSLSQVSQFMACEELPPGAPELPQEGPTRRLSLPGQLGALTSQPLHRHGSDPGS

Turning to `CO[C@@H]1CN(c2nc(C)cc(N3CCN4[C@@H](C3)CN(c3ccc(C#N)c5ncccc35)C[C@H]4C)n2)C[C@H]1N` [Example 45, 5-[(4R,9aR)-8-[2-[(3R,4R)-3-amino-4-methoxy-pyrrolidin-1-yl]-6-methyl-pyrimidin-4-yl]-4-methyl-3,4,6,7,9,9a-hexahydro-1H-pyrazino[1,2-a]pyrazin-2-yl]quinoline-8-carbonitrile], at hERG channel, the IC50 is over 20 µM; the IC20 (in general, the point of the concentration-response curve where the effect stands at 20%) is over 10 µM; the “hERG IC20/TLR7 IC50” value is listed as over 556; the “hERG IC20/TLR8 IC50” value is recorded as over 357. For the same compound, the “hERG IC20/TLR9 IC50” value at hERG channel was over 124. Moreover, the IC50 on human TLR9 worked out at 0.081 µM.
As to `Cc1cc(N2CC3(CN(C)C3)C2)cnc1N1CCN2[C@@H](C1)CN(c1cc(=O)n(C)c3ncccc13)C[C@@H]2C` [Example 113, 4-[(4S,9aR)-4-methyl-8-[3-methyl-5-(6-methyl-2,6-diazaspiro[3.3]heptan-2-yl)-2-pyridyl]-3,4,6,7,9,9a-hexahydro-1H-pyrazino[1,2-a]pyrazin-2-yl]-1-methyl-1,8-naphthyridin-2-one], at hERG channel, the IC50 was over 20 µM, the IC20 is over 10 µM, the “hERG IC20/TLR7 IC50” value is given as over 1666 and the “hERG IC20/TLR8 IC50” value is over 70. For the same compound, on hERG channel, the “hERG IC20/TLR9 IC50” value is on record as over 79. For the same compound, the IC50 on human TLR9 is 0.126 µM.
With `C[C@@H]1CN(c2ccc(C#N)c3ncccc23)C[C@@H]2CN(c3ccnc(N4CC(N)C4)c3)CCN21` [Example 41, 5-[(4R,9aS)-8-[2-(3-aminoazetidin-1-yl)-4-pyridyl]-4-methyl-3,4,6,7,9,9a-hexahydro-1H-pyrazino[1,2-a]pyrazin-2-yl]quinoline-8-carbonitrile], on hERG channel, the IC50 is over 20 µM, it took 9.64 µM to reach the 20% level (IC20), the “hERG IC20/TLR7 IC50” value was 275 and the “hERG IC20/TLR8 IC50” value worked out at 1377. Moreover, on hERG channel, the “hERG IC20/TLR9 IC50” value is 214. For the same compound, the IC50 on human TLR9 amounted to 0.045 µM.
Take `Cc1cc(N2CCN3[C@@H](C2)CN(c2ccc(C#N)c4ncccc24)C[C@H]3C)nc(N2CC(C)(N)C2)n1` [Example 55, 5-[(4R,9aR)-8-[2-(3-amino-3-methyl-azetidin-1-yl)-6-methyl-pyrimidin-4-yl]-4-methyl-3,4,6,7,9,9a-hexahydro-1H-pyrazino[1,2-a]pyrazin-2-yl]quinoline-8-carbonitrile]: at hERG channel, the IC50 was over 20 µM, the IC20 is over 10 µM, the “hERG IC20/TLR7 IC50” value is recorded as over 680 and the “hERG IC20/TLR8 IC50” value was over 249. For the same compound, the “hERG IC20/TLR9 IC50” value at hERG channel is reported as over 209. Also, the IC50 on human TLR9 came out at 0.048 µM.
`[2H]c1ccc2c(N3C[C@@H]4CN(c5ccc([C@@H]6CNCCO6)cc5)CCN4[C@@H](C)C3)ccc(C#N)c2n1` [Example 106, 5-[(4S,9aS)-4-methyl-8-[4-[(2R)-morpholin-2-yl]phenyl]-3,4,6,7,9,9a-hexahydro-1H-pyrazino[1,2-a]pyrazin-2-yl]-2-deuterio-quinoline-8-carbonitrile]: on hERG channel, the IC50 was over 20 µM, the concentration for an effect of 20% (IC20) is over 10 µM, the “hERG IC20/TLR7 IC50” value was over 5000 and the “hERG IC20/TLR8 IC50” value is over 2500. In addition, the “hERG IC20/TLR9 IC50” value on hERG channel is listed as over 78. The IC50 at human TLR9 amounted to 0.128 µM.
Take `C[C@@H]1CN(c2ccc(C#N)c3ncccc23)C[C@@H]2CN(Cc3ccc(N4CCNCC4)nc3)CCN21` [Example 8, 5-[(4R,9aS)-4-methyl-8-[(6-piperazin-1-yl-3-pyridyl)methyl]-3,4,6,7,9,9a-hexahydro-1H-pyrazino[1,2-a]pyrazin-2-yl]quinoline-8-carbonitrile]: at hERG channel, the IC50 is over 20 µM, the IC20 was found to be 8.63 µM, the “hERG IC20/TLR7 IC50” value came to 392 and the “hERG IC20/TLR8 IC50” value stood at 166. In addition, at hERG channel, the “hERG IC20/TLR9 IC50” value worked out at 210. Also, the IC50 on human TLR9 worked out at 0.041 µM.
For the compound `[2H]c1ccc2c(N3C[C@@H]4CN(c5ccc6c(n5)CCNC6)CCN4[C@@H](C)C3)ccc(C#N)c2n1` [Example 121, 5-[(4S,9aR)-4-methyl-8-(5,6,7,8-tetrahydro-1,6-naphthyridin-2-yl)-3,4,6,7,9,9a-hexahydro-1H-pyrazino[1,2-a]pyrazin-2-yl]-2-deuterio-quinoline-8-carbonitrile], at hERG channel, the IC50 is over 20 µM, the IC20 was over 10 µM, the “hERG IC20/TLR7 IC50” value is on record as over 2000 and the “hERG IC20/TLR8 IC50” value is over 10000. In addition, the “hERG IC20/TLR9 IC50” value on hERG channel is listed as over 117. For the same compound, the IC50 on human TLR9 came out at 0.085 µM.
In the case of `C[C@@H]1CN(c2ccc(C#N)c3ncccc23)C[C@@H]2CN(c3nccc(N4CCNCC4)n3)CCN21` [Example 30, 5-[(4R,9aR)-4-methyl-8-(4-piperazin-1-ylpyrimidin-2-yl)-3,4,6,7,9,9a-hexahydro-1H-pyrazino[1,2-a]pyrazin-2-yl]quinoline-8-carbonitrile], at hERG channel, the IC50 is over 10 µM, the 20% effect level (IC20) was put at 4.53 µM, the “hERG IC20/TLR7 IC50” value was 283 and the “hERG IC20/TLR8 IC50” value came out at 216. On hERG channel, the “hERG IC20/TLR9 IC50” value was 63. Further, the IC50 at human TLR9 was 0.072 µM.
In the case of `CO[C@H]1CN(c2ccc(CCN3CCN4[C@@H](C3)CN(c3ccc(C#N)c5ncccc35)C[C@H]4C)cn2)C[C@@H]1N` [Example 25, 5-[(4R,9aS)-8-[2-[6-[(3S,4S)-3-amino-4-methoxy-pyrrolidin-1-yl]-3-pyridyl]ethyl]-4-methyl-3,4,6,7,9,9a-hexahydro-1H-pyrazino[1,2-a]pyrazin-2-yl]quinoline-8-carbonitrile], on hERG channel, the IC50 was over 20 µM, the IC20 is over 10 µM, the “hERG IC20/TLR7 IC50” value is reported as over 769 and the “hERG IC20/TLR8 IC50” value is given as over 400. Also, the “hERG IC20/TLR9 IC50” value at hERG channel is reported as over 156. In addition, on human TLR9, the IC50 was found to be 0.064 µM.
Consider `[2H]c1ccc2c(N3C[C@@H]4CN(CCc5ccc(N6C[C@H]7NCCO[C@@H]7C6)nc5)CCN4[C@H](C)C3)ccc(C#N)c2n1` [Example 77, 5-[(4R,9aS)-8-[2-[6-[(4aR,7aR)-3,4,4a,5,7,7a-hexahydro-2H-pyrrolo[3,4-b][1,4]oxazin-6-yl]-3-pyridyl]ethyl]-4-methyl-3,4,6,7,9,9a-hexahydro-1H-pyrazino[1,2-a]pyrazin-2-yl]-2-deuterio-quinoline-8-carbonitrile], for which, at hERG channel, the IC50 was over 20 µM, the IC20 was over 10 µM, the “hERG IC20/TLR7 IC50” value is listed as over 476 and the “hERG IC20/TLR8 IC50” value is on record as over 416. Besides, on hERG channel, the “hERG IC20/TLR9 IC50” value was over 227. On human TLR9, the IC50 was 0.044 µM.
For the compound `[2H]c1ccc2c(N3C[C@@H]4CN(c5ncc(N6CC(C)(N)C6)cc5C)CCN4[C@@H](C)C3)ccc(C#N)c2n1` [Example 118, 5-[(4S,9aR)-8-[5-(3-amino-3-methyl-azetidin-1-yl)-3-methyl-2-pyridyl]-4-methyl-3,4,6,7,9,9a-hexahydro-1H-pyrazino[1,2-a]pyrazin-2-yl]-2-deuterio-quinoline-8-carbonitrile], on hERG channel, the IC50 was over 20 µM, the 20% effect level (IC20) was put at 7.66 µM, the “hERG IC20/TLR7 IC50” value is 1914 and the “hERG IC20/TLR8 IC50” value worked out at 1276. Further, the “hERG IC20/TLR9 IC50” value at hERG channel amounted to 51. Also, at human TLR9, the IC50 turned out to be 0.148 µM.
